Here are results for 7 compounds from US10457707B2, “Substituted urea depsipeptide analogs as activators of the CLPP endopeptidase” (priority 2015, dated 2019).

≈ marks a conversion by molar mass, not a printed value. *1 amine or outer side, *2 acyl side, *3 side chain or, on linkers, in order; H or OH if unused. Where a SMILES comes first, the peptide text is derived from it. Bridges are numbered along the chain shown (N, C = ends). [ ]: non-standard residue; d: D form. The star is where a group is joined. ξ: configuration not given here. Phe(3,5-F2) = N[C@@H](Cc1cc(F)cc(F)c1)C(=O)O; NH(4-OCF3-phenyl) = FC(F)(F)Oc1ccc(N*)cc1; ξPro(4R-OH) = O=C(O)C1C[C@@H](O)CN1; ξPro(4S-Me) = C[C@@H]1CNC(C(=O)O)C1; ξPro(4R-Me) = C[C@H]1CNC(C(=O)O)C1; NH(4-Et-phenyl) = CCc1ccc(N*)cc1; aThr = C[C@H](O)[C@H](N)C(=O)O; NMeA = CN[C@@H](C)C(=O)O; ξPip = O=C(O)C1CCCCN1; CO = O=C([*:1])[*:2]; ξP = O=C(O)C1CCCN1

Format in all cases: cell-based
The subject of assay [1] is Staphylococcus aureus, NRS70. Nature of the assay: Minimal inhibitory concentration assay (microbroth dilution). To be noted: Staphylococcus aureus, NRS70; read-out: Minimal Inhibitory Concentrations S. aureus NRS70. On the procedure:
(§1) It is understood, that in various aspects, the MIC is determined by a microbroth dilution method. In a further aspect, the MIC is determined by a microbroth dilution method using Staphylococcus aureus, ATCC 29213. In a still further aspect, the MIC is determined by a microbroth dilution method using Staphylococcus aureus, NRS70. In a yet further aspect, the MIC is determined by a microbroth dilution method using Streptococcus pyogenes, ATCC 700294. In an even further aspect, the MIC is determined by a microbroth dilution method using Streptococcus pneumoniae, DAW27. In a still further aspect, the MIC is determined by a microbroth dilution method using Bacillus subtilis, ATCC 23857. In a yet further aspect, the MIC is determined by a microbroth dilution method using Enterococcus faecalis, ATCC 33186. In an even further aspect, the MIC is determined using Staphylococcus aureus, USA 300. In a still further aspect, the MIC is determined using Streptococcus pneumoniae, R6. In a further aspect, the MIC is determined using Staphylococcus aureus, USA 300 and compared to the MIC determined using Staphylococcus aureus, USA 300 wherein ClpP is inactivated, thus allowing confirmation that killing is via a ClpP-dependent pathway.
(§2) Minimal inhibitory concentrations (“MICs”) were determined using the microbroth dilution method according to Clinical Laboratory Standards Institute (CLSI; National, C.F. C. L. S., Methods for Dilution Antimicrobial Susceptibility Tests for Bacteria Grow aerobically-Seventh Edition: Approved Standard M7-A7, CLSI, Wayne, Pa., USA, 2008) and were read by visual inspection. Two fold serial dilutions of test compound in 100 μL of the appropriate broth media were first prepared in 96-well round bottom microtiter plates (Nalgene Nunc International, Rochester, N.Y., USA). An equivalent volume (100 μL) of bacterial broth inocula containing approximately 10^5 bacterial cfu/mL was added to each well to give final concentrations of test compound starting at 200 μM. The plates were then incubated aerobically at 37° C. All strains were incubated overnight. After incubations, in all cases the MIC was recorded as the lowest concentration of drug that prevented bacterial growth. The bacterial strains for which MIC was determined as described in Table 4.
A general note: In broth dilution the organism is exposed to a series of concentrations in liquid medium.

Assay [2] has as its system Bacillus subtilis, ATCC 23857. The assay is described as above. To be noted: Bacillus subtilis, ATCC23857; read-out: Minimal Inhibitory Concentrations B. subtilis ATCC 23857. The protocol: as §1, §2
In assay [3] the test system is Staphylococcus aureus, ATCC 29213. Described as above. To be noted: ATCC29213, read-out: Minimal Inhibitory Concentrations S. aureus ATCC 29213. On the procedure:
as §1, §2

In assay [4] the test system is Streptococcus pyogenes, ATCC 700294. Described as above. To be noted: Streptococcus pyogenes, ATCC700294; read-out: Minimal Inhibitory Concentrations S. pyogenes ATCC 700294. On the procedure: as §1
Minimal inhibitory concentrations (“MICs”) were determined using the microbroth dilution method according to Clinical Laboratory Standards Institute (CLSI; National, C.F. C. L. S., Methods for Dilution Antimicrobial Susceptibility Tests for Bacteria Grow aerobically-Seventh Edition: Approved Standard M7-A7, CLSI, Wayne, Pa., USA, 2008) and were read by visual inspection. Two fold serial dilutions of test compound in 100 μL of the appropriate broth media were first prepared in 96-well round bottom microtiter plates (Nalgene Nunc International, Rochester, N.Y., USA). […] The plates were then incubated aerobically at 37° C. All strains were incubated overnight. After incubations, in all cases the MIC was recorded as the lowest concentration of drug that prevented bacterial growth. The bacterial strains for which MIC was determined as described in Table 4.

In assay [5] the test system is Staphylococcus aureus, USA 300. Nature of the assay: Minimal inhibitory concentration assay. To be noted: USA300, read-out: Minimal Inhibitory Concentrations S. aureus USA 300. The protocol:
as §1, §2

Assay [6] deals with Staphylococcus aureus, USA 300 wherein ClpP is inactivated. Nature of the assay: Minimal inhibitory concentration assay. The protocol:
as §1, §2

For `C[C@@H]1NC(=O)[C@H](C)N(C)C(=O)C2CCCN2C(=O)[C@@H](NC(=O)[C@H](Cc2cc(F)cc(F)c2)NC(=O)Nc2ccc(OC(F)(F)F)cc2)[C@H](C)OC(=O)C2CCCN2C1=O` (stereo partly drawn) [Compound 27, (2S)-3-(3,5-difluorophenyl)-N-((6S,9S,11aS,17S,18S)-6,9,10,18-tetramethyl-5,8,11,16,20-pentaoxohexadecahydro-1H,5H,16H-dipyrrolo[2,1-c:2′,1′-l][1]oxa[4,7,10,13]tetraazacyclohexadecin-17-yl)-2-(3-(4-(trifluoromethoxy)phenyl)ureido)propanamide] ({NH(4-OCF3-phenyl)-CO}-[Phe(3,5-F2)][aThr][ξP][NMeA]A[ξP]; ester 2-C), the MIC was 0.2 µM (≈ 0.168 µg/mL) in assay [1]; 0.02 µM (≈ 0.0168 µg/mL) in assay [2]; 0.2 µM (≈ 0.168 µg/mL) in assay [3]; 0.23 µM (≈ 0.193 µg/mL) in assay [4]; 0.2 µM (≈ 0.168 µg/mL) in assay [5]. Besides, in assay [6], the “Minimal Inhibitory Concentrations S. aureus USA 300 ΔClpP” value was determined as 100 µM.
Regarding `CCc1ccc(NC(=O)N[C@@H](Cc2cc(F)cc(F)c2)C(=O)N[C@@H]2C(=O)N3CCCC3C(=O)N(C)[C@@H](C)C(=O)N[C@@H](C)C(=O)N3CCCC3C(=O)O[C@H]2C)cc1` (stereo partly drawn) [Compound 29, (2S)-3-(3,5-difluorophenyl)-2-(3-(4-ethylphenyl)ureido)-N-((6S,9S,11aS,17S,18S)-6,9,10,18-tetramethyl-5,8,11,16,20-pentaoxohexadecahydro-1H,5H,16H-dipyrrolo[2,1-c:2′,1′-l][1]oxa[4,7,10,13]tetraazacyclohexadecin-17-yl)propanamide] ({NH(4-Et-phenyl)-CO}-[Phe(3,5-F2)][aThr][ξP][NMeA]A[ξP]; ester 2-C), the MIC in assay [1] stood at 0.2 µM (≈ 0.156 µg/mL); in assay [2], 0.01 µM (≈ 0.00782 µg/mL); in assay [3], 0.2 µM (≈ 0.156 µg/mL); in assay [4], 0.13 µM (≈ 0.102 µg/mL); in assay [5] it was 0.2 µM (≈ 0.156 µg/mL). The “Minimal Inhibitory Concentrations S. aureus USA 300 ΔClpP” value in assay [6] was found to be 100 µM.
Take `CCc1ccc(NC(=O)N[C@@H](Cc2cc(F)cc(F)c2)C(=O)N[C@@H]2C(=O)N3CCCC3C(=O)N(C)[C@@H](C)C(=O)N[C@@H](C)C(=O)N3C[C@@H](C)CC3C(=O)O[C@H]2C)cc1` (stereo partly drawn) [Compound 30, (S)-3-(3,5-difluorophenyl)-2-(3-(4-ethylphenyl)ureido)-N-((2S,6S,9S,11aS,17S,18S,20aS)-2,6,9,10,18-pentamethyl-5,8,11,16,20-pentaoxohexadecahydro-1H,5H,16H-dipyrrolo[2,1-c:2′,1′-L][1]oxa[4,7,10,13]tetraazacyclohexadecin-17-yl)propanamide] ({NH(4-Et-phenyl)-CO}-[Phe(3,5-F2)][aThr][ξP][NMeA]A[ξPro(4S-Me)]; ester 2-C): the MIC in assay [1] was 0.2 µM (≈ 0.159 µg/mL); in assay [2], 0.001 µM (≈ 0.000796 µg/mL); in assay [3], 0.1 µM (≈ 0.0796 µg/mL); in assay [4], 0.03 µM (≈ 0.0239 µg/mL); in assay [5], 0.1 µM (≈ 0.0796 µg/mL). For the same compound, the “Minimal Inhibitory Concentrations S. aureus USA 300 ΔClpP” value in assay [6] turned out to be 50 µM.
`C[C@H]1CC2C(=O)O[C@@H](C)[C@H](NC(=O)[C@H](Cc3cc(F)cc(F)c3)NC(=O)Nc3ccc(OC(F)(F)F)cc3)C(=O)N3C[C@H](O)CC3C(=O)N(C)[C@@H](C)C(=O)N[C@@H](C)C(=O)N2C1` (stereo partly drawn) [Compound 32, (S)-3-(3,5-difluorophenyl)-N-((2S,6S,9S,11aS,13R,17S,18S,20aS)-13-hydroxy-2,6,9,10,18-pentamethyl-5,8,11,16,20-pentaoxohexadecahydro-1H,5H,16H-dipyrrolo[2,1-c:2′,1′-l][1]oxa[4,7,10,13]tetraazacyclohexadecin-17-yl)-2-(3-(4-(trifluoromethoxy)phenyl)ureido)propanamide] ({NH(4-OCF3-phenyl)-CO}-[Phe(3,5-F2)][aThr][ξPro(4R-OH)][NMeA]A[ξPro(4S-Me)]; ester 2-C): the MIC in assay [1] came out at 0.1 µM (≈ 0.0868 µg/mL); in assay [2], 0.39 µM (≈ 0.338 µg/mL); in assay [3] it was 0.1 µM (≈ 0.0868 µg/mL); in assay [4] it was 0.2 µM (≈ 0.174 µg/mL); in assay [5], 0.39 µM (≈ 0.338 µg/mL). Also, the “Minimal Inhibitory Concentrations S. aureus USA 300 ΔClpP” value in assay [6] was found to be 100 µM.
In the case of `C[C@@H]1CC2C(=O)O[C@@H](C)[C@H](NC(=O)[C@H](Cc3cc(F)cc(F)c3)NC(=O)Nc3ccc(OC(F)(F)F)cc3)C(=O)N3CCCC3C(=O)N3CCCCC3C(=O)N[C@@H](C)C(=O)N2C1` (stereo partly drawn) [Compound 40, (S)-3-(3,5-difluorophenyl)-2-(3-(4-(trifluoromethoxy)phenyl)ureido)-N-((2R,6S,8aS,14aS,20S,21S,23aS)-2,6,21-trimethyl-5,8,14,19,23-pentaoxooctadecahydro-1H,5H,14H,19H-pyrido[2,1-i]dipyrrolo[2,1-c:2′,1′-L][1]oxa[4,7,10,13]tetraazacyclohexadecin-20-yl)propanamide] ({NH(4-OCF3-phenyl)-CO}-[Phe(3,5-F2)][aThr][ξP][ξPip]A[ξPro(4R-Me)]; ester 2-C), the MIC turned out to be 0.02 µM (≈ 0.0176 µg/mL) in assay [1]; 0.02 µM (≈ 0.0176 µg/mL) in assay [2]; 0.05 µM (≈ 0.0439 µg/mL) in assay [3]; 0.4 µM (≈ 0.351 µg/mL) in assay [4]; 0.05 µM (≈ 0.0439 µg/mL) in assay [5]. Besides, the “Minimal Inhibitory Concentrations S. aureus USA 300 ΔClpP” value in assay [6] was 25 µM.
`C[C@H]1CC2C(=O)OC[C@H](NC(=O)[C@H](Cc3ccccc3)NC(=O)Nc3ccc(OC(F)(F)F)cc3)C(=O)N3CCCC3C(=O)N3CCCCC3C(=O)N[C@@H](C)C(=O)N2C1` (stereo partly drawn) [Compound 44, (S)—N-((2S,6S,8aS,14aS,20S,23aS)-2,6-dimethyl-5,8,14,19,23-pentaoxooctadecahydro-1H,5H,14H,19H-pyrido[2,1-i]dipyrrolo[2,1-c:2′,1′-l][1]oxa[4,7,10,13]tetraazacyclohexadecin-20-yl)-3-phenyl-2-(3-(4-(trifluoromethoxy)phenyl)ureido)propanamide]: the MIC stood at 0.4 µM (≈ 0.331 µg/mL) in assay [1]; 0.1 µM (≈ 0.0828 µg/mL) in assay [2]; 0.4 µM (≈ 0.331 µg/mL) in assay [3]; 0.2 µM (≈ 0.166 µg/mL) in assay [4]; 0.8 µM (≈ 0.662 µg/mL) in assay [5]. The “Minimal Inhibitory Concentrations S. aureus USA 300 ΔClpP” value in assay [6] came out at 50 µM.
Take `C[C@H]1CC2C(=O)OC[C@H](NC(=O)[C@H](Cc3cc(F)cc(F)c3)NC(=O)Nc3ccc4c(c3)OCO4)C(=O)N3CCCC3C(=O)N3CCCCC3C(=O)N[C@@H](C)C(=O)N2C1` (stereo partly drawn) [Compound 46, (S)-2-(3-(benzo[d][1,3]dioxol-5-yl)ureido)-3-(3,5-difluorophenyl)-N-((2S,6S,8aS,14aS,20S,23aS)-2,6-dimethyl-5,8,14,19,23-pentaoxooctadecahydro-1H,5H,14H,19H-pyrido[2,1-i]dipyrrolo[2,1-c:2′,1′-l][1]oxa[4,7,10,13]tetraazacyclohexadecin-20-yl)propanamide]: the MIC in assay [1] is 1.6 µM (≈ 1.32 µg/mL); in assay [2], 0.4 µM (≈ 0.33 µg/mL); in assay [3], 3.1 µM (≈ 2.55 µg/mL); in assay [4], 0.8 µM (≈ 0.659 µg/mL); in assay [5] it was 3.1 µM (≈ 2.55 µg/mL). The “Minimal Inhibitory Concentrations S. aureus USA 300 ΔClpP” value in assay [6] amounted to 200 µM.
